# Experimental data published in ChEMBL document CHEMBL4507291 (2021).
# How the values were obtained:
# [1] = biological target: T1, Serine/threonine-protein kinase Nek2 (Homo sapiens) (UniProt P51955)
# T1 sequence (whole entry): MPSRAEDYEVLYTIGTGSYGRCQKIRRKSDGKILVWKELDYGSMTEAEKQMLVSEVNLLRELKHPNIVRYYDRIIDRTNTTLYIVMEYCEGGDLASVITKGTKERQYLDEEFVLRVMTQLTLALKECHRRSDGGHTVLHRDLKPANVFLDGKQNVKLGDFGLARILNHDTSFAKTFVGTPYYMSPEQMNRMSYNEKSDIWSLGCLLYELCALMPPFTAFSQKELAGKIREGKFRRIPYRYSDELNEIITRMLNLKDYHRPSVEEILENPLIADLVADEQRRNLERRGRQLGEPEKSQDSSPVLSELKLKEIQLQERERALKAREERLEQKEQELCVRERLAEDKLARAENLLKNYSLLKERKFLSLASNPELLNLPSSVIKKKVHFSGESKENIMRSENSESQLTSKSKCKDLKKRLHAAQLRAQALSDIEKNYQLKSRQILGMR
# [2] = biological target: Angiopoietin-1 receptor (Homo sapiens) (UniProt Q02763)
# [3] = biological target: Cyclin-dependent kinase 7 (Homo sapiens) (UniProt P50613)
# [4] = biological target: Serine/threonine-protein kinase OSR1 (Homo sapiens) (UniProt O95747)
# [5] = biological target: T2, Serine/threonine-protein kinase Sgk1 (Homo sapiens) (UniProt O00141)
# T2 sequence (whole entry): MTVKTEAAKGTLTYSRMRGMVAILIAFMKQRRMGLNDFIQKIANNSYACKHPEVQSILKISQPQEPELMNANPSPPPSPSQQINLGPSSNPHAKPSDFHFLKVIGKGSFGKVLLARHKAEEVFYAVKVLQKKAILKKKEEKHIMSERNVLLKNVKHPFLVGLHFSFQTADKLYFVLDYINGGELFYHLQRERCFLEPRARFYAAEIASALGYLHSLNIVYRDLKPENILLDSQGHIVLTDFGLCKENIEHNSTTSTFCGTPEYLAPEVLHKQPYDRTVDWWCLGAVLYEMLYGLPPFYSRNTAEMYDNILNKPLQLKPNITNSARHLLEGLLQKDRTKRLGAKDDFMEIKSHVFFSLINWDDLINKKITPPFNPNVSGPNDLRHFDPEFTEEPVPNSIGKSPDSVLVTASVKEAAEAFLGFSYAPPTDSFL
# [6] = biological target: T3, Muscle, skeletal receptor tyrosine-protein kinase (Homo sapiens) (UniProt O15146)
# T3 sequence (whole entry): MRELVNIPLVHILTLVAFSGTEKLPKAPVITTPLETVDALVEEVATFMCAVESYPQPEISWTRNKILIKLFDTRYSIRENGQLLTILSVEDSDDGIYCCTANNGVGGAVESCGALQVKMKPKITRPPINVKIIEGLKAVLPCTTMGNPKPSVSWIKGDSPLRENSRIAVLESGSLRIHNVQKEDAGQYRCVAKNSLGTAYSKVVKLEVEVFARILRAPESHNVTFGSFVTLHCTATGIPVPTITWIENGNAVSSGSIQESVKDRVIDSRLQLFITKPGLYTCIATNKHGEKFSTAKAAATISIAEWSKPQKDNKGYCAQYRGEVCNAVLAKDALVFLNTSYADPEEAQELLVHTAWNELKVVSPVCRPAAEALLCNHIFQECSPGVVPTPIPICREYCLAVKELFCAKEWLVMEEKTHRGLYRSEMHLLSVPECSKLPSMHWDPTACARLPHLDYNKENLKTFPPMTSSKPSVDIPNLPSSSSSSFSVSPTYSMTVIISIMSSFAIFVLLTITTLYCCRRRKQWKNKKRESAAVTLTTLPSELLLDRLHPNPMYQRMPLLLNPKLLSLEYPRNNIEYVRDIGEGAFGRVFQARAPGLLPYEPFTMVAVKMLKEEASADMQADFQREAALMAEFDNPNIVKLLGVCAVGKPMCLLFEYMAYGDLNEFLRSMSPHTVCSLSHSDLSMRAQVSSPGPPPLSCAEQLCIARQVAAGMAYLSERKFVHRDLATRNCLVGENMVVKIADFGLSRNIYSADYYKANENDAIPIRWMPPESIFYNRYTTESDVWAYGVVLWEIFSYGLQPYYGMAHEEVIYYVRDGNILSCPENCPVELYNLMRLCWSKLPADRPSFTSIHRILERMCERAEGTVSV
# [7] = biological target: RAC-alpha serine/threonine-protein kinase (Homo sapiens) (UniProt P31749)
# [8] = test system: Proto-oncogene tyrosine-protein kinase receptor Ret (Homo sapiens), P07949 [M918T]
# [9] = biological target: T4, Homeodomain-interacting protein kinase 4 (Homo sapiens) (UniProt Q8NE63)
# T4 sequence (whole entry): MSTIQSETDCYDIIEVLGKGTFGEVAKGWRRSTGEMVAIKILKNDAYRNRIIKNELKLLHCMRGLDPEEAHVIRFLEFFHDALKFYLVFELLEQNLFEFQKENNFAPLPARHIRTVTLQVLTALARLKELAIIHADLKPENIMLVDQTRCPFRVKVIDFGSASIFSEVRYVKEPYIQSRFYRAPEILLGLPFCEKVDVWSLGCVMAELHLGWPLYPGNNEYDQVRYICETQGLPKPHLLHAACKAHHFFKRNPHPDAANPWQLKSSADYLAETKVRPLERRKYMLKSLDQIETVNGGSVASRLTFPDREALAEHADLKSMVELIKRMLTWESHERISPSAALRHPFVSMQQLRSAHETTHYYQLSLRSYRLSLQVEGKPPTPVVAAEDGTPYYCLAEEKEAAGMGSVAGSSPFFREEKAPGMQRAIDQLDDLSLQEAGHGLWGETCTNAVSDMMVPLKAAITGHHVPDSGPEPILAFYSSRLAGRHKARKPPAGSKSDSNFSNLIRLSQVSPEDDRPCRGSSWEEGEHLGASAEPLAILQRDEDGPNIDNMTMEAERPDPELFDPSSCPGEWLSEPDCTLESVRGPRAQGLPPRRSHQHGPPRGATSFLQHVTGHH
# [10] = Compound concentration 1000.0 nM
# [11] = Compound concentration 100.0 nM
# Proto-oncogene tyrosine-protein kinase receptor Ret (Homo sapiens), P07949 [M918T], sequence (P07949 whole entry M918T): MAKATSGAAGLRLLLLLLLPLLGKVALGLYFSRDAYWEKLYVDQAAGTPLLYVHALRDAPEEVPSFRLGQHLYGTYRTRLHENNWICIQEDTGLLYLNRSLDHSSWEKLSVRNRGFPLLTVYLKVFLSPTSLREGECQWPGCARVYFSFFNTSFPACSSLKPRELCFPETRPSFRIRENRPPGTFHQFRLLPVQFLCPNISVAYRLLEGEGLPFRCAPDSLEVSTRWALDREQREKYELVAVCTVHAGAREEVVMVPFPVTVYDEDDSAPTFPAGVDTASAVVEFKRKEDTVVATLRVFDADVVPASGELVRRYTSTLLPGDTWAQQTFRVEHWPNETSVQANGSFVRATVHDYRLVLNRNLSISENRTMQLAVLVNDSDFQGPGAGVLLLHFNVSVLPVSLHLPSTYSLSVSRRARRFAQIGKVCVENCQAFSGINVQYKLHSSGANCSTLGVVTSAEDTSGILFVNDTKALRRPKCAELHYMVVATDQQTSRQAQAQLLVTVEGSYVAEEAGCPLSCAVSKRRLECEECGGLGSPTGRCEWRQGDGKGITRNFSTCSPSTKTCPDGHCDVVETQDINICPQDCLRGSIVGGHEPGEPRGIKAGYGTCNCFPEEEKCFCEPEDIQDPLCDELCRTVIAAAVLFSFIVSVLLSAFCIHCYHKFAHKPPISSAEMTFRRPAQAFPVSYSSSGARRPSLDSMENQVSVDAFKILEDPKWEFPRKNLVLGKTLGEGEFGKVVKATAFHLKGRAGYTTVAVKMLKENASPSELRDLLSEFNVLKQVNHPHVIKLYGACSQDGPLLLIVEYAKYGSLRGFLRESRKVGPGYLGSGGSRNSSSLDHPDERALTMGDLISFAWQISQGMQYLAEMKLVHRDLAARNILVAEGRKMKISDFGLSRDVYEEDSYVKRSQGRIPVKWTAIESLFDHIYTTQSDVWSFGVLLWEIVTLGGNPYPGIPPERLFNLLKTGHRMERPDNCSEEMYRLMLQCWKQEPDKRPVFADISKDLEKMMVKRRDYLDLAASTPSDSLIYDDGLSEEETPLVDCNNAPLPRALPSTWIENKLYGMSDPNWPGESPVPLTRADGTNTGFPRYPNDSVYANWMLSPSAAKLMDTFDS
# RAC-alpha serine/threonine-protein kinase (Homo sapiens), sequence (P31749 whole entry): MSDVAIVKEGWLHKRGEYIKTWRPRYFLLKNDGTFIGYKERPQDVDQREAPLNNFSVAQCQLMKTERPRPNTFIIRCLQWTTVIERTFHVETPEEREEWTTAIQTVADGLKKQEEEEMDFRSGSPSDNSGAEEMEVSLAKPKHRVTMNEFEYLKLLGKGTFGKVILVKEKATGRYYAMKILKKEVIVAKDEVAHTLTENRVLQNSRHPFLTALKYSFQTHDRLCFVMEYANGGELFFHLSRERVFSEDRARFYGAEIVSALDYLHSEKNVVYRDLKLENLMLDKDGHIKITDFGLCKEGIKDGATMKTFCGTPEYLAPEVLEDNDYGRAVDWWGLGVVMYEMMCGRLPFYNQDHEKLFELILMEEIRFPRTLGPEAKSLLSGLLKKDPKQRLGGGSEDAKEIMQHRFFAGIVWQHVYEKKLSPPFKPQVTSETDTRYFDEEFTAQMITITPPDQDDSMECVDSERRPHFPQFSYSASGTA
# Serine/threonine-protein kinase OSR1 (Homo sapiens), sequence (O95747 2-527 limits assumed): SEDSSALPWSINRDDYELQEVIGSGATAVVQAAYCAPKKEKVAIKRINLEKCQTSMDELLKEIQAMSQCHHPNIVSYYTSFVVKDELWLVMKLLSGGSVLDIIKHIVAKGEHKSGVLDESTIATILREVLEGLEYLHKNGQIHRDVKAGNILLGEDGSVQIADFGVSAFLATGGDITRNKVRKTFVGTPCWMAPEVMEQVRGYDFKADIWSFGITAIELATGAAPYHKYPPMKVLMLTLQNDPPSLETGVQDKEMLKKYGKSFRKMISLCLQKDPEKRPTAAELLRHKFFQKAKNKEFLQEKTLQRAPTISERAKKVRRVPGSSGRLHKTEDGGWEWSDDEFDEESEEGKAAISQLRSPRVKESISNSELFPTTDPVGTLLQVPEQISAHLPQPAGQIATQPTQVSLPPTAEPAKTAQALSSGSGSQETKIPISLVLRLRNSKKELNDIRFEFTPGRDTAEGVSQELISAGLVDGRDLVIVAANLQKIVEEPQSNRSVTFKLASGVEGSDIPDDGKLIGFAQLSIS
# Angiopoietin-1 receptor (Homo sapiens), sequence (Q02763 whole entry): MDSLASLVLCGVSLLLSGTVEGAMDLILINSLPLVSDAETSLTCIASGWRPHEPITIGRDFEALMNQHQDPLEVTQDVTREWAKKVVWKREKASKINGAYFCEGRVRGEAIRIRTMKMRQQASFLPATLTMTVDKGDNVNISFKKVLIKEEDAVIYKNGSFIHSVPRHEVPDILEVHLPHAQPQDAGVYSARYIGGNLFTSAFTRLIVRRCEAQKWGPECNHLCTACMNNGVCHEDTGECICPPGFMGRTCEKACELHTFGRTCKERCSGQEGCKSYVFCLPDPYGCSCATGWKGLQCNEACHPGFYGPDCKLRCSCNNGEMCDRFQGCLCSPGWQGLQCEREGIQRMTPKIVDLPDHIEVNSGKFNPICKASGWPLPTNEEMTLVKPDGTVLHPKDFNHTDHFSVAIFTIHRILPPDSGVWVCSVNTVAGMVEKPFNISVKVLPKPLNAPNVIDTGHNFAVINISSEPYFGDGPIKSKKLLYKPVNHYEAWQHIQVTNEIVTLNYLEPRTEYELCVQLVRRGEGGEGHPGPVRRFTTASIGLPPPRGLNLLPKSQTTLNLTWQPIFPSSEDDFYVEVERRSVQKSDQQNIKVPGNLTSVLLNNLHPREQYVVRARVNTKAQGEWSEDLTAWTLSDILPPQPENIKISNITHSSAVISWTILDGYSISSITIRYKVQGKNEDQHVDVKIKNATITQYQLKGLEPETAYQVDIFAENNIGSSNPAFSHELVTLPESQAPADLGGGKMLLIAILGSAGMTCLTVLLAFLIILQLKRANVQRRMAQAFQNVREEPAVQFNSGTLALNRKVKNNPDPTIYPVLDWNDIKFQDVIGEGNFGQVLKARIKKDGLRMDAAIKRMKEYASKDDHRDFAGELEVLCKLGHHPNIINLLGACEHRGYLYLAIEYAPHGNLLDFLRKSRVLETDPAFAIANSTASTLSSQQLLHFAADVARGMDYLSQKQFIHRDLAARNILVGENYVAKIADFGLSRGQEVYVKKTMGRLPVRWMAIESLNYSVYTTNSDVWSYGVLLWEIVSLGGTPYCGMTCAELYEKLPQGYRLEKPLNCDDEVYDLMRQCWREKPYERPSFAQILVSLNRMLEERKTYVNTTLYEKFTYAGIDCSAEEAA
# Cyclin-dependent kinase 7 (Homo sapiens), sequence (P50613 whole entry): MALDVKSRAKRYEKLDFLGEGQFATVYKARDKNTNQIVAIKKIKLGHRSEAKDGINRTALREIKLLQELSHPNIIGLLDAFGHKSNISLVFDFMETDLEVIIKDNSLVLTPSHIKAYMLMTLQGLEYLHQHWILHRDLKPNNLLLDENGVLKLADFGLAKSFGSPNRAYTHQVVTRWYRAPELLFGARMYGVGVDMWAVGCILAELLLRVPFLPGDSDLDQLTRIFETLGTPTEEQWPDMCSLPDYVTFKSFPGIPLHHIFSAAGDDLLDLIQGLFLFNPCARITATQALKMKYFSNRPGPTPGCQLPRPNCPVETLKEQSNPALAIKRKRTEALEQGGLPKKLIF
Structure (SMILES),"residual activity [1, 10] [%]","residual activity [2, 10] [%]","residual activity [3, 10] [%]","residual activity [4, 10] [%]","residual activity [5, 10] [%]","residual activity [6, 10] [%]","residual activity [7, 10] [%]","residual activity [8, 10] [%]","residual activity [9, 10] [%]","residual activity [1, 11] [%]","residual activity [2, 11] [%]","residual activity [3, 11] [%]","residual activity [4, 11] [%]","residual activity [5, 11] [%]","residual activity [6, 11] [%]","residual activity [7, 11] [%]","residual activity [8, 11] [%]","residual activity [9, 11] [%]"
C[C@@H]1CN(c2cc(-c3nn(C)c4ccc(OC5(C)CC5)cc34)ncn2)C[C@H](C)O1 [MLi-2-NC],100,94,100,93,47,92,100,84,79,–,–,–,–,–,–,–,–,–
C[C@@H]1CN(c2cc(-c3n[nH]c4ccc(OC5(C)CC5)cc34)ncn2)C[C@H](C)O1 [MLi-2],–,–,–,–,–,–,–,–,–,86,100,56,72,89,56,87,97,97
